According to the NIST ThermoML archive (doi:10.1016/j.tca.2012.08.001):
Numbers after ± are expanded uncertainties.

Tests used:
[1] = refractive index (Na D-line) (dimensionless); conditions: 298.2 K; 101.33 kPa; Liquid; Standard Abbe refractometry
[2] = 298.2 K; 101.33 kPa; Liquid; Vibrating tube method

With `CCCCCCCCCCO` [decan-1-ol] the refractive index [1] was 1.4344 ± 0.2 and the mass density [2] was 826.8 ± 0.36 kg/m3.

`O=CO` [formic acid] gave a refractive index [1] of 1.3713 ± 0.2 and a mass density [2] of 1219.32 ± 0.61 kg/m3.

With `O` [water] the refractive index [1] was 1.3324 ± 0.2.
